ChEMBL document CHEMBL5154675, “Design, Synthesis, and Biological Evaluation of 1-(Indolizin-3-yl)ethan-1-ones as CBP Bromodomain Inhibitors for the Treatment of Prostate Cancer” (J Med Chem, 2022)

How the values were obtained:
[1] = Half life in rat liver microsomes at 1 uM incubated for 45 mins in presence of NADPH by LC-MS/MS analysis; format: ADME, Microsome
[2] = Metabolic stability in rat liver microsomes assessed as parent compound remaining at 1 uM incubated for 45 mins in presence of NADPH by LC-MS/MS analysis; format: ADME, Microsome; conditions: read-out: Stability
[3] = Hepatic extraction ratio in human liver microsomes at 1 uM incubated for 45 mins in presence of NADPH by LC-MS/MS analysis; format: ADME, Microsome; conditions: read-out: ERH
[4] = Metabolic stability in human liver microsomes assessed as parent compound remaining at 1 uM incubated for 45 mins in presence of NADPH by LC-MS/MS analysis; format: ADME, Microsome; conditions: read-out: Stability
[5] = Intrinsic clearance in rat liver microsomes at 1 uM incubated for 45 mins in presence of NADPH by LC-MS/MS analysis; format: ADME, Microsome; conditions: read-out: CLH
in vitro = conditions: rat, liver microsomes
Description: Hepatic extraction ratio in rat liver microsomes at 1 uM incubated for 45 mins in presence of NADPH by LC-MS/MS analysis

[6] = Intrinsic clearance in human liver microsomes at 1 uM incubated for 45 mins in presence of NADPH by LC-MS/MS analysis; format: ADME, Microsome; conditions: read-out: CLH
[7] = Hepatic clearance in human liver microsomes at 1 uM incubated for 45 mins in presence of NADPH by LC-MS/MS analysis; format: ADME, Microsome; conditions: read-out: CLH
[8] = Half life in human liver microsomes at 1 uM incubated for 45 mins in presence of NADPH by LC-MS/MS analysis; format: ADME, Microsome
[9] = Hepatic clearance in rat liver microsomes at 1 uM incubated for 45 mins in presence of NADPH by LC-MS/MS analysis; format: ADME, Microsome
[10] = AUC (0 to infinity) in Sprague-Dawley rat at 25 mg/kg, po measured up to 24 hrs; format: ADME, organism-based; set-up: time < 24 hrs, dose 25 mg/kg, route po; conditions: in vivo
[11] = Apparent permeability across apical to basolateral side in human Caco-2 cells at 10 uM measured after 2 hrs by LC-MS/MS analysis; format: ADME, cell-based
LNCaP C4-2B = experiment: Antiproliferative activity against human LNCaP C4-2B cells assessed as inhibition of cell growth by Celltiter-Glo assay; format: functional, cell-based
CREB-binding protein [12] = biological target: T1, CREB-binding protein (Homo sapiens, UniProt Q92793); conditions: dose 200.0 µM, time 30.0 min
[13] = Apparent permeability across basolateral to apical side in human Caco-2 cells assessed as drug recovery at 10 uM measured after 2 hrs by LC-MS/MS analysis; format: ADME, cell-based; conditions: read-out: Drug recovery
[14] = biological target: T2, Bromodomain-containing protein 2 (Homo sapiens, UniProt P25440); conditions: dose 200.0 µM, time 30.0 min
[15] = biological target: Histone acetyltransferase KAT2B (Homo sapiens) (UniProt Q92831); conditions: dose 200.0 µM, time 30.0 min
[16] = Efflux ratio of apparent permeability across basolateral to apical side over apical to basolateral side in human Caco-2 cells at 10 uM measured after 2 hrs by LC-MS/MS analysis; format: ADME, cell-based
[17] = biological target: Chromatin remodeling regulator CECR2 (Homo sapiens) (UniProt Q9BXF3); conditions: dose 200.0 µM, time 30.0 min
[18] = biological target: T3, Bromodomain testis-specific protein (Homo sapiens, UniProt Q58F21); conditions: dose 200.0 µM, time 30.0 min
[19] = biological target: T4, Bromodomain-containing protein 4 (Homo sapiens, UniProt O60885); conditions: dose 200.0 µM, time 30.0 min
[20] = AUC (0 to infinity) in Sprague-Dawley rat at 5 mg/kg, iv administered as single dose measured up to 24 hrs; format: ADME, organism-based; set-up: time < 24 hrs, dose 5 mg/kg, route iv; conditions: in vivo, 24 h
[21] = Half life in Sprague-Dawley rat at 25 mg/kg, po measured up to 24 hrs; format: ADME, organism-based; conditions: in vivo
[22] = Half life in Sprague-Dawley rat at 5 mg/kg, iv administered as single dose measured up to 24 hrs; format: ADME, organism-based; conditions: in vivo, iv, 5 mg/kg, 24 h
[23] = biological target: T5, Bromodomain-containing protein 9 (Homo sapiens) (UniProt Q9H8M2); conditions: dose 200.0 µM, time 30.0 min
T5 sequence (whole entry): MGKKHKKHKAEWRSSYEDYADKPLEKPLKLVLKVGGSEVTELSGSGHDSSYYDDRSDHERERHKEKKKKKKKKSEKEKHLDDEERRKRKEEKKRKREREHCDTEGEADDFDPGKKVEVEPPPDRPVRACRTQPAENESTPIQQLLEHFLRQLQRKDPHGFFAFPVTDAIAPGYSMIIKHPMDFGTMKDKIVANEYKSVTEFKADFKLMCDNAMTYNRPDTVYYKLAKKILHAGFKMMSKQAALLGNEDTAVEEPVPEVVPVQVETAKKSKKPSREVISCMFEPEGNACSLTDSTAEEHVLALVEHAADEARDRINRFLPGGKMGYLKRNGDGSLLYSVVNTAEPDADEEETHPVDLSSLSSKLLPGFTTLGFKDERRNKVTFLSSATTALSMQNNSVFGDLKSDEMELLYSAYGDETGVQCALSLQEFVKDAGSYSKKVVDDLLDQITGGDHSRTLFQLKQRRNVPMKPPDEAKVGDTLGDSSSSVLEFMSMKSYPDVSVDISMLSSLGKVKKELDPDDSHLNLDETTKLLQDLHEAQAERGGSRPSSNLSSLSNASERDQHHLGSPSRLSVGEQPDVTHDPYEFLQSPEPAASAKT

[24] = Oral bioavailability in Sprague-Dawley rat at 25 mg/kg measured up to 24 hrs; format: ADME, organism-based; conditions: in vivo
[25] = biological target: T6, Bromodomain-containing protein 3 (Homo sapiens, UniProt Q15059); conditions: dose 200.0 µM, time 30.0 min
LNCaP = experiment: Antiproliferative activity against human LNCaP cells assessed as cell growth inhibition by Celltiter-Glo assay; format: functional, cell-based
[26] = Clearance in Sprague-Dawley rat at 5 mg/kg, iv administered as single dose measured up to 24 hrs; format: ADME, organism-based; conditions: Sprague-Dawley, in vivo
[27] = Apparent permeability across basolateral to apical side in human Caco-2 cells at 10 uM measured after 2 hrs by LC-MS/MS analysis; format: ADME, cell-based
[28] = biological target: T4, Bromodomain-containing protein 4; conditions: dose 200.0 µM, time 30.0 min; remark: listed apart in the source
[29] = biological target: SWI/SNF-related matrix-associated actin-dependent regulator of chromatin subfamily A member 2 (Homo sapiens) (UniProt P51531); conditions: dose 200.0 µM, time 30.0 min
CREB-binding protein [30] = biological target: T1, CREB-binding protein; experiment: Inhibition of His6-tagged human CBP bromodomain (1081 to 1197 residues) expressed in Escherichia coli BL21 (DE3) incubated for 30 mins by HTRF assay
[31] = Cmax in Sprague-Dawley rat at 25 mg/kg, po measured up to 24 hrs; format: ADME, organism-based; set-up: dose 25 mg/kg, time < 24 hrs, route po; conditions: in vivo
[32] = biological target: T3, Bromodomain testis-specific protein; conditions: dose 200.0 µM, time 30.0 min; remark: listed apart in the source
[33] = Apparent permeability across apical to basolateral side in human Caco-2 cells assessed as drug recovery at 10 uM measured after 2 hrs by LC-MS/MS analysis; format: ADME, cell-based; conditions: read-out: Drug recovery
[34] = biological target: T2, Bromodomain-containing protein 2; conditions: dose 200.0 µM, time 30.0 min; remark: listed apart in the source
CWR22R = experiment: Antiproliferative activity against human 22Rv1 cells assessed as cell growth inhibition by Celltiter-Glo assay; format: functional, cell-based
[35] = biological target: T6, Bromodomain-containing protein 3; conditions: dose 200.0 µM, time 30.0 min; remark: listed apart in the source
[36] = biological target: PH-interacting protein (Homo sapiens) (UniProt Q8WWQ0); conditions: dose 200.0 µM, time 30.0 min
[37] = biological target: Histone acetyltransferase p300 (Homo sapiens) (UniProt Q09472); conditions: dose 200.0 µM, time 30.0 min
[38] = biological target: Bromodomain adjacent to zinc finger domain protein 2B (Homo sapiens) (UniProt Q9UIF8); conditions: dose 200.0 µM, time 30.0 min

T2 sequence (P25440 whole entry, looked up): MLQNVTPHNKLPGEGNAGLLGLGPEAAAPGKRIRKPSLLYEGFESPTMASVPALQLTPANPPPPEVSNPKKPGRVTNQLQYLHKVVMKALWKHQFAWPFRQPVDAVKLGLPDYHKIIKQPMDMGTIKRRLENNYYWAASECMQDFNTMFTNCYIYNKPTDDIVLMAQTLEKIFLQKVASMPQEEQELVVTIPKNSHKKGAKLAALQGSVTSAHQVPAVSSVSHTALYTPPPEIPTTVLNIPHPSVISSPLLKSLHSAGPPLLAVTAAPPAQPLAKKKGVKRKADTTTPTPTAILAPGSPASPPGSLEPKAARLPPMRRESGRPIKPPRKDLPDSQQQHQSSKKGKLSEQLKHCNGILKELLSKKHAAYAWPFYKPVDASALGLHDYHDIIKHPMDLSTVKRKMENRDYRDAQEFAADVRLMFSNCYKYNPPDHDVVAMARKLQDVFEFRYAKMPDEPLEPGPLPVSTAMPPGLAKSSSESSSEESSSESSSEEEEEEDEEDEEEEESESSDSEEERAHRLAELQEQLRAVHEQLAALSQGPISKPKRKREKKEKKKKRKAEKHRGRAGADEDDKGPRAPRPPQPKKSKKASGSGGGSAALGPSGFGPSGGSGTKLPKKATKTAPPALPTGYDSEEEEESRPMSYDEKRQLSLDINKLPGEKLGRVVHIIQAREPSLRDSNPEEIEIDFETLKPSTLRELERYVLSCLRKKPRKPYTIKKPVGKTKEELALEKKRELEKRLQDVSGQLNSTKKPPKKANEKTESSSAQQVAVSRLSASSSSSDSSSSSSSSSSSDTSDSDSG
T6 sequence (Q15059 2-726 limits assumed): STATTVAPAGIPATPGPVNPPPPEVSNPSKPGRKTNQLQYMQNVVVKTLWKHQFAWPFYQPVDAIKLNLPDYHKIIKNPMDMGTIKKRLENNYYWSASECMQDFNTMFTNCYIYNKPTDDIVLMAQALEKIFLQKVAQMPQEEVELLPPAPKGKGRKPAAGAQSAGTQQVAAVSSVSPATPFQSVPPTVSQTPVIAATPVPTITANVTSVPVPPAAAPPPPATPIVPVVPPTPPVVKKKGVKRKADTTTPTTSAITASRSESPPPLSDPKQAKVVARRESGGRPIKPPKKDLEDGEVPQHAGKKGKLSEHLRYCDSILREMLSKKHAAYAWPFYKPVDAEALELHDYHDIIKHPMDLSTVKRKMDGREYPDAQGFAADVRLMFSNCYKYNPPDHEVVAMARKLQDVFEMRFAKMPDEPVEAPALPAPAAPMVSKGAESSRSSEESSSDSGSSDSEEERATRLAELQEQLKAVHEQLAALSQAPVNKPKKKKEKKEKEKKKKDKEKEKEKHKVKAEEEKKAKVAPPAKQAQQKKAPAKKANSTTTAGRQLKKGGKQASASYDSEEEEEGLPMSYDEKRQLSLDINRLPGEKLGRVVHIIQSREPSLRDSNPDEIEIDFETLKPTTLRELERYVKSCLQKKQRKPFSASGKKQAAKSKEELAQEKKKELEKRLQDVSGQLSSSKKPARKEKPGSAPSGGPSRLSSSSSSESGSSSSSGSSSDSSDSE
Chromatin remodeling regulator CECR2 (Homo sapiens), sequence (Q9BXF3 whole entry, looked up): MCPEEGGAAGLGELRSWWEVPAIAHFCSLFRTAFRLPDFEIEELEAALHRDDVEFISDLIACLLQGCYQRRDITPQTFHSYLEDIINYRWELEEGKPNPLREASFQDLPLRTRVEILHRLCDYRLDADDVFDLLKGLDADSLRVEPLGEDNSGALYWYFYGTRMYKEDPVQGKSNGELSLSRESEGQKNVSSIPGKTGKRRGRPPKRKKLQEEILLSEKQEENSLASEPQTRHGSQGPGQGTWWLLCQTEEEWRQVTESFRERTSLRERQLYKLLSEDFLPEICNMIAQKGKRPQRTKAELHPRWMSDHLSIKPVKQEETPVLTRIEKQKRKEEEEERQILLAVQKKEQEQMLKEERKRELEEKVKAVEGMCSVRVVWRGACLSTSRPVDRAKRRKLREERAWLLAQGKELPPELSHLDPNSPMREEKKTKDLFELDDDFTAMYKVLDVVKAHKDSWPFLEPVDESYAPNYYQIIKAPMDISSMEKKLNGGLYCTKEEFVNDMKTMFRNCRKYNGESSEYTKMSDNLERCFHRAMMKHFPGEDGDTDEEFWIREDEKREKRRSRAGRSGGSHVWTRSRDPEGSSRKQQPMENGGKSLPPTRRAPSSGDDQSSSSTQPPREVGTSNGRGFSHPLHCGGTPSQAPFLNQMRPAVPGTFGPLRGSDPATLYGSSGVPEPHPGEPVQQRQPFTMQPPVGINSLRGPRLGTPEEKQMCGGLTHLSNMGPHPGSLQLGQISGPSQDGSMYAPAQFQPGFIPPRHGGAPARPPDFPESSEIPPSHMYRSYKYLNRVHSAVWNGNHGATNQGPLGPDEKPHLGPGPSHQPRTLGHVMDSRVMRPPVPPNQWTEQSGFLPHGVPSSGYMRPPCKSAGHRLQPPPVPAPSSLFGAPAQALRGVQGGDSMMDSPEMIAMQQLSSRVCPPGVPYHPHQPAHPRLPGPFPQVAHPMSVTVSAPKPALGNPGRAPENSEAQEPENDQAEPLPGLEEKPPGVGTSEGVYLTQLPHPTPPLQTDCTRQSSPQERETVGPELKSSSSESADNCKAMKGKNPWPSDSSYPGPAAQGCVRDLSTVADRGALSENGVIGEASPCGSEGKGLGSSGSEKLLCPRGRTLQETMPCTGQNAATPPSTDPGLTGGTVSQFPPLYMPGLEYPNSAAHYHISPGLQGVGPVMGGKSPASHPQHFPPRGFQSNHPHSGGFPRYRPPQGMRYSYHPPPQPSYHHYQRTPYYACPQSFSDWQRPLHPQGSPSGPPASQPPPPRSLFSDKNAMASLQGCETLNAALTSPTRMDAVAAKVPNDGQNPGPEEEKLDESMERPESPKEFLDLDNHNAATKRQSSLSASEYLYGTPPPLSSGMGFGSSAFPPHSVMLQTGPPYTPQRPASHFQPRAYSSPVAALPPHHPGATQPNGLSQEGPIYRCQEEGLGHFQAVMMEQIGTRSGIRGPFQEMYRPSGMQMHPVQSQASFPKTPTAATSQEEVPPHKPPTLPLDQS
SWI/SNF-related matrix-associated actin-dependent regulator of chromatin subfamily A member 2 (Homo sapiens), sequence (P51531 whole entry, the tested form may be a part): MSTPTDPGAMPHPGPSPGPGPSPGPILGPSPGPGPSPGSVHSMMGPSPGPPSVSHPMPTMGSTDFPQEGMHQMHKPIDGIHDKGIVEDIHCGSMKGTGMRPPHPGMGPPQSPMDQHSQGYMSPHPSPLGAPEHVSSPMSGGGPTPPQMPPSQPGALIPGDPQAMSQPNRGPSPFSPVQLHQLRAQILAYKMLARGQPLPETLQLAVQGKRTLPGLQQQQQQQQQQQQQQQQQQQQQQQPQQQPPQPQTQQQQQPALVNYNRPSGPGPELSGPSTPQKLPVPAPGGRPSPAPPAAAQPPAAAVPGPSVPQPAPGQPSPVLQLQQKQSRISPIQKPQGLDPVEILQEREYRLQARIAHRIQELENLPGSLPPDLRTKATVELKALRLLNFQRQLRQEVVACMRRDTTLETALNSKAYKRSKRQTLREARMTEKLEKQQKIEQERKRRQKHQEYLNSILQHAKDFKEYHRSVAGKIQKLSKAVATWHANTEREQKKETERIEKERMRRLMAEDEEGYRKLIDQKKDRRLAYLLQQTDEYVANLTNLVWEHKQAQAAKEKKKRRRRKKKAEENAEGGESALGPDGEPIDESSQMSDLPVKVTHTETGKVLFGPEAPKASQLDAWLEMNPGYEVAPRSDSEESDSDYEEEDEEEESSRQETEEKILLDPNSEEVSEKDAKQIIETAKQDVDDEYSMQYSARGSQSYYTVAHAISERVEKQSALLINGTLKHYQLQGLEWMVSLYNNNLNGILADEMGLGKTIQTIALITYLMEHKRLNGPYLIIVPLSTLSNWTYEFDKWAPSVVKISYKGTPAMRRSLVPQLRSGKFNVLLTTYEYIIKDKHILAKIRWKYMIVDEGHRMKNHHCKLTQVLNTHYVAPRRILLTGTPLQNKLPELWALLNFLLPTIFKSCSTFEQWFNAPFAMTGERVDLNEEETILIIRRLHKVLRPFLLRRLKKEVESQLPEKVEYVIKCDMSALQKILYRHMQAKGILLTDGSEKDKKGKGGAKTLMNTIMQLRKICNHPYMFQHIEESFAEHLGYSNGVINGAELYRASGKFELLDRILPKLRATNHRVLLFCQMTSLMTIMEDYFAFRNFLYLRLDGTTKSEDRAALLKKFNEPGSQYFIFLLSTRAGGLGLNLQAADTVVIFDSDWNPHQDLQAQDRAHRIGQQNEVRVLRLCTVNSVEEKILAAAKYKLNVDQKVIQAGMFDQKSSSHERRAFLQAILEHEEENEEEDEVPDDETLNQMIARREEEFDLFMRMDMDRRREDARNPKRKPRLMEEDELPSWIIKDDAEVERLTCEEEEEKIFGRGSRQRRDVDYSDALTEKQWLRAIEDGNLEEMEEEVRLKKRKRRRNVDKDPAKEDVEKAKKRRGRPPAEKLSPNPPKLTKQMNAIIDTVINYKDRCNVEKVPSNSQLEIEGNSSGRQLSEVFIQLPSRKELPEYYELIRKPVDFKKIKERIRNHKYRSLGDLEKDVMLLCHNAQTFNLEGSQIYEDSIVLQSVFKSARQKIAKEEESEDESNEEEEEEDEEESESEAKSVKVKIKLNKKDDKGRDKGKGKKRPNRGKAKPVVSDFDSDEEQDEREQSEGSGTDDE

Cc1ncc2n1-c1ccc(Cl)cc1C(c1ccccc1F)=NC2 [MIDAZOLAM]
half-life at 1 µM [1]: 1.85 min | remaining at 0.75 h, 1 µM [2]: 4.5% | hepatic extraction ratio at 0.75 h, 1 µM [3]: 0.962 | remaining at 0.75 h, 1 µM [4]: 0.55% | CLint scaled at 1 µM [5]: 750 mL/min/kg | hepatic extraction ratio at 0.75 h, 1 µM (in vitro): 0.961 | CLint scaled at 1 µM [6]: 452 mL/min/kg | CLint scaled at 1 µM [7]: 19.9 mL/min/kg | half-life at 1 µM [8]: 3.07 min | CLhep predicted at 1 µM [9]: 53 mL/min/kg

CC(=O)c1cc(C(=O)Nc2cc(CO)cc(-c3cnn(C4CC4)c3)c2F)c2cc(OC(=O)N(C)C)ccn12
AUC(0-inf) [10]: 9450 ng·h/mL | half-life at 1 µM [1]: 39.3 min | Papp A→B at 2 h, 10 µM [11]: 0.2 ×10⁻⁶ cm/s | IC50 (LNCaP C4-2B): > 5000 nM | ΔTm (CREB-binding protein [12]): 11.5 °C | recovery at 2 h, 10 µM [13]: 95.8% | remaining at 0.75 h, 1 µM [2]: 44.7% | hepatic extraction ratio at 0.75 h, 1 µM [3]: 0.64 | remaining at 0.75 h, 1 µM [4]: 16.9% | ΔTm [14]: -0.3 °C | ΔTm [15]: -0.6 °C | efflux ratio at 2 h, 10 µM [16]: 14.2 | ΔTm [17]: -0.2 °C | ΔTm [18]: -0.5 °C | CLint scaled at 1 µM [5]: 63.3 mL/min/kg | ΔTm [19]: 0.5 °C | AUC [20]: 29943.87 ng·h/mL | half-life [21]: 194 min | t1/2 [22]: 96 min | ΔTm [23]: 1.5 °C | bioavailability [24]: 6.18% | ΔTm [25]: -1 °C | IC50 (LNCaP): 360 nM | clearance [26]: 2.83 mL/min/kg | Papp B→A at 2 h, 10 µM [27]: 2.89 ×10⁻⁶ cm/s | ΔTm [28]: -1.5 °C | hepatic extraction ratio at 0.75 h, 1 µM (in vitro): 0.753 | CLint scaled at 1 µM [6]: 98.2 mL/min/kg | ΔTm [29]: -0.3 °C | IC50 (CREB-binding protein [30]): 21.3 nM | Cmax [31]: 2040 ng/mL | ΔTm [32]: -3 °C | recovery at 2 h, 10 µM [33]: 107% | ΔTm [34]: 0 °C | IC50 (CWR22R): > 5000 nM | ΔTm [35]: 0 °C | ΔTm [36]: 0 °C | ΔTm [37]: 11.8 °C | CLint scaled at 1 µM [7]: 35.3 mL/min/kg | half-life at 1 µM [8]: 17.7 min | ΔTm [38]: -0.2 °C | CLhep predicted at 1 µM [9]: 15.6 mL/min/kg
